Data: US11236087B2, “Highly active pyrazolo-piperidine substituted indole-2-carboxamides active against the hepatitis B virus (HBV)” (AiCuris GmbH & Co. KG, priority 2017, dated 2022)
pEC50, pIC50: −log10 of the molar value.

Assays:
[1] = system: HBV; test: Determination of HBV DNA from the supernatants of HepAD38 cells (anti-HBV activity); assay type: cell-based, hepatitis B virus; conditions: Hepatitis B virus, 144 h; HBV DNA in HepAD38 supernatant, day 6, qPCR; read-out: Cell Activity (EC50)
Procedure, shortened: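 Supernatant viral DNA was measured by LightCycler qPCR, calibrated with pCH-9/3091 plasmid, 6 days after tetracycline-free HepAD38 cultures received half-log serial compound dilutions; untreated and tetracycline-treated cells served as controls; EC50 was fitted by non-linear regression.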

[2] = molecular target: T1, HBV core protein (UniProt P03146); test: Biochemical capsid assembly assay (fluorescence quenching); set-up: species or system hepatitis B virus; conditions: read-out: Assembly Activity (IC50); BODIPY-FL labelled core protein, 300 μM NaCl, read 6 min after start
T1 construct: fused on or other part: BODIPY-FL maleimide label on the C-terminal Cys150
Procedure, shortened: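 Assembly-induced fluorescence quenching (477/525 nm) was measured 6 min after NaCl addition ([…]), against 2.5 M and 0 M NaCl controls. The labelled C150 core dimer (truncated at 149) at 1.0-2.0 μM in HEPES pH 7.5 was tested with eight half-log compound dilutions, top 100, 31.6 or 10 μM. EC50 was obtained by non-linear fit from triplicates run three times.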

[3] = Cell viability assay (AlamarBlue) in HepAD38 cells; conditions: human

T1 sequence (P03146 whole entry, looked up, the tested form may be a part): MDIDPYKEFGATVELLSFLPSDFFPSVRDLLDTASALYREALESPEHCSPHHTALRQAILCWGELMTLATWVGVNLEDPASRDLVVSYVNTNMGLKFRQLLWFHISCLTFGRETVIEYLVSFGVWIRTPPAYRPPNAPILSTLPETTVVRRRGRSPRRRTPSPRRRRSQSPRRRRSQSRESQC

SMILES	pEC50 [1]	pIC50 [2]	CC50 at 6 days [3] [µM]
CN(C(=O)c1n[nH]c2c1CN(C(=O)c1cc3ccccc3[nH]1)CC2)C1CCCCC1 [Example 170, N-cyclohexyl-5-(1H-indole-2-carbonyl)-N-methyl-1H,4H,5H,6H,7H-pyrazolo[4,3-c]pyridine-3-carboxamide]	4.60 to 6.00	5.00 to 5.30	> 10
CN(CC(=O)OC(C)(C)C)C(=O)c1n[nH]c2c1CN(C(=O)c1cc3ccccc3[nH]1)CC2 [Example 171, tert-butyl 2-{1-[5-(1H-indole-2-carbonyl)-1H,4H,5H,6H,7H-pyrazolo[4,3-c]pyridin-3-yl]-N-methylformamido}acetate]	4.60 to 6.00	> 4.00	> 10
CN(CCO)C(=O)c1n[nH]c2c1CN(C(=O)c1cc3c(C(F)F)ccc(F)c3[nH]1)CC2 [Example 172, 5-[4-(difluoromethyl)-7-fluoro-1H-indole-2-carbonyl]-N-(2-hydroxyethyl)-N-methyl-1H,4H,5H,6H,7H-pyrazolo[4,3-c]pyridine-3-carboxamide]	4.60 to 6.00	> 5.30	> 10
CN(C(=O)c1n[nH]c2c1CN(C(=O)c1cc3ccccc3[nH]1)CC2)[C@H]1CC[C@H](O)CC1 [Example 173, 5-(1H-indole-2-carbonyl)-N-methyl-N-[(1r,4r)-4-hydroxycyclohexyl]-1H,4H,5H,6H,7H-pyrazolo[4,3-c]pyridine-3-carboxamide]	4.60 to 6.00	> 4.00	> 10
CN(C(=O)c1n[nH]c2c1CN(C(=O)c1cc3ccccc3[nH]1)CC2)[C@H]1CC[C@@H](O)CC1 [Example 174, 5-(1H-indole-2-carbonyl)-N-methyl-N-[(1s,4s)-4-hydroxycyclohexyl]-1H,4H,5H,6H,7H-pyrazolo[4,3-c]pyridine-3-carboxamide]	4.60 to 6.00	> 4.00	> 10
O=C(c1cc2ccccc2[nH]1)N1CCc2[nH]nc(C(=O)N3C[C@@H]4[C@@H](CO)[C@@H]4C3)c2C1 [Example 175, [(±)-3-[5-(1H-indole-2-carbonyl)-1H,4H,5H,6H,7H-pyrazolo[4,3-c]pyridine-3-carbonyl]-3-azabicyclo[3.1.0]hexan-6-yl]methanol]	4.60 to 6.00	5.00 to 5.30	> 10
O=C(c1cc2ccccc2[nH]1)N1CCc2[nH]nc(C(=O)N3C[C@@H]4[C@@H](O)[C@@H]4C3)c2C1 [Example 176, (±)-3-[5-(1H-indole-2-carbonyl)-1H,4H,5H,6H,7H-pyrazolo[4,3-c]pyridine-3-carbonyl]-3-azabicyclo[3.1.0]hexan-6-ol]	4.60 to 6.00	5.00 to 5.30	> 10
CN(Cc1ccccc1)C(=O)c1n[nH]c2c1CN(C(=O)c1cc3ccccc3[nH]1)CC2 [Example 178, N-benzyl-5-(1H-indole-2-carbonyl)-N-methyl-1H4H,5H,6H,7H-pyrazolo[4,3-c]pyridine-3-carboxamide]	> 6.00	> 5.30	> 10
O=C(c1cc2ccccc2[nH]1)N1CCc2[nH]nc(C(=O)N3CCC[C@H]3CO)c2C1 [Example 180, [(2S)-1-[5-(1H-indole-2-carbonyl)-1H,4H,5H,6H,7H-pyrazolo[4,3-c]pyridine-3-carbonyl]pyrrolidin-2-yl]methanol]	4.60 to 6.00	> 4.00	> 10
O=C(c1cc2ccccc2[nH]1)N1CCc2[nH]nc(C(=O)N3Cc4cn[nH]c4C3)c2C1 [Example 181, 2-(3-{1H,4H,5H,6H-pyrrolo[3,4-c]pyrazole-5-carbonyl}-1H,4H,5H,6H,7H-pyrazolo[4,3-c]pyridine-5-carbonyl)-1H-indole]	4.60 to 6.00	5.00 to 5.30	> 10
O=C(c1cc2ccccc2[nH]1)N1CCc2[nH]nc(C(=O)N3CCCC34CC4)c2C1 [Example 184, 2-(3-{4-azaspiro[2.4]heptane-4-carbonyl}-1H,4H,5H,6H,7H-pyrazolo[4,3-c]pyridine-5-carbonyl)-1H-indole]	> 6.00	> 5.30	> 10
CCN(C(=O)c1n[nH]c2c1CN(C(=O)c1cc3ccccc3[nH]1)CC2)C1COC1 [Example 185, N-ethyl-5-(1H-indole-2-carbonyl)-N-(oxetan-3-yl)-1H,4H,5H,6H,7H-pyrazolo[4,3-c]pyridine-3-carboxamide]	> 6.00	5.00 to 5.30	> 10
CN(C(=O)c1n[nH]c2c1CN(C(=O)c1cc3ccccc3[nH]1)CC2)C1COC1 [Example 188, 5-(1H-indole-2-carbonyl)-N-methyl-N-(oxetan-3-yl)-1H,4H,5H,6H,7H-pyrazolo[4,3-c]pyridine-3-carboxamide]	> 6.00	5.00 to 5.30	> 10
CN(C(=O)c1n[nH]c2c1CN(C(=O)c1cc3ccccc3[nH]1)CC2)C1CCOC1 (stereo not drawn) [Example 189, 5-(1H-indole-2-carbonyl)-N-methyl-N-(oxolan-3-yl)-1H4H,5H,6H,7H-pyrazolo[4,3-c]pyridine-3-carboxamide]	4.60 to 6.00	> 4.00	> 10
O=C(c1cc2ccccc2[nH]1)N1CCc2[nH]nc(C(=O)N3CCC(F)(F)CC3)c2C1 [Example 190, 2-[3-(4,4-difluoropiperidine-1-carbonyl)-1H,4H,5H,6H,7H-pyrazolo[4,3-c]pyridine-5-carbonyl]-1H-indole]	> 6.00	> 5.30	> 10
CC(C)(C)OC(=O)N[C@@H]1CCN(C(=O)c2n[nH]c3c2CN(C(=O)c2cc4ccccc4[nH]2)CC3)C1 [Example 191, tert-butyl N-[(3R)-1-[5-(1H-indole-2-carbonyl)-1H,4H,5H,6H,7H-pyrazolo[4,3-c]pyridine-3-carbonyl]pyrrolidin-3-yl]carbamate]	4.60 to 6.00	> 5.30	> 10
CN(C(=O)c1n[nH]c2c1CN(C(=O)c1cc3ccccc3[nH]1)CC2)C1CCCOC1 (stereo not drawn) [Example 193, 5-(1H-indole-2-carbonyl)-N-methyl-N-(oxan-3-yl)-1H,4H,5H,6H,7H-pyrazolo[4,3-c]pyridine-3-carboxamide]	4.60 to 6.00	> 4.00	> 10
CC(C)(C)OC(=O)N[C@H]1CCN(C(=O)c2n[nH]c3c2CN(C(=O)c2cc4ccccc4[nH]2)CC3)C1 [Example 194, tert-butyl N-[(3S)-1-[5-(1H-indole-2-carbonyl)-1H,4H,5H,6H,7H-pyrazolo[4,3-c]pyridine-3-carbonyl]pyrrolidin-3-yl]carbamate]	4.60 to 6.00	> 4.00	> 10
O=C(c1cc2ccccc2[nH]1)N1CCc2[nH]nc(C(=O)N3CCOCC34CC4)c2C1 [Example 195, 2-(3-{7-oxa-4-azaspiro[2.5]octane-4-carbonyl}-1H,4H,5H,6H,7H-pyrazolo[4,3-c]pyridine-5-carbonyl)-1H-indole]	> 6.00	5.00 to 5.30	> 10
CN(OCCO)C(=O)c1n[nH]c2c1CN(C(=O)c1cc3c(Cl)cccc3[nH]1)CC2 [Example 196, 5-(4-chloro-1H-indole-2-carbonyl)-N-(2-hydroxyethoxy)-N-methyl-1H,4H,5H,6H,7H-pyrazolo[4,3-c]pyridine-3-carboxamide]	> 6.00	> 5.30	> 10
